Source: patent US11291646B2, “Nozzle assembly and methods for use” (CRITITECH, INC., priority 2015, dated 2022)

Assay: Bulk density
Type: physicochemical
Settings: docetaxel; room temperature
Protocol: The mass of the drug was measured to a nearest 0.1 mg, the volume was determined to the nearest 0.1 mL and the density calculated.

Bulk Density: 0.24 g/cm3
SMILES: CC(=O)O[C@@]12CO[C@@H]1C[C@H](O)[C@@]1(C)C(=O)[C@H](O)C3=C(C)[C@@H](OC(=O)[C@H](O)[C@@H](NC(=O)OC(C)(C)C)c4ccccc4)C[C@@](O)([C@@H](OC(=O)c4ccccc4)[C@H]21)C3(C)C [Docetaxel Raw Material, docetaxel]
